Where two headings read alike, the source gives them in different places.
Experiments:
[1] = Plasma stability, human plasma; format: in vitro ADME
Experimental: (§1) Samples were taken at 0, 30, 60, 120, 180, and 360 min to quantitate the disappearance of the valine conjugates and appearance of a cleaved parent. The matrix stability assay in plasma and the quantitative analysis of samples by UV-VIS HPLC were performed according to the standard protocol at Charles River Laboratories, Inc. (Wilmington, MA, USA).

[2] = Plasma stability, murine plasma; format: in vitro ADME, mouse
Experimental: as §1

SNU475 cells [3] = experiment: Cellular invasion assay, SNU475; format: cell-based, human; settings: 1 µM and 10 µM, 48 h of treatment
Experimental: The BioCoat Matrigel invasion assay was performed according to the manufacturer’s instructions (BioCoat Matrigel Invasion Chambers, 354480, Corning, Corning, NY, USA). AR-negative clones and parental lines (SNU475 and HCCLM3) were hormone-deprived in phenol red-free RPMI1640 with 5% csFBS (±Pen-Strep) for 24 h. A total of 40,000 cells were suspended in a well insert in 0.5 mL of phenol red-free medium without csFBS over a well of 0.75 mL phenol red-free medium with 5% csFBS as a chemoattractant and incubated for 24 h. Invaded cells were fixed in 4% paraformaldehyde and stained with 0.1% crystal violet in 20% methanol. Cells in 10 different and non-overlapping fields of each membrane were photographed and counted. The Fluorometric QCM™ 24-Well Cell Invasion Assay (ECM 554, MilliporeSigma, Burlington, MA, USA) was executed as per the manufacturer’s protocol using 1.25 × 10^5 cells in 250 μL of serum-free medium and incubated for 24–72 h. Following cell lysis and staining with CyQuant GR Dye, fluorescence was measured in a plate reader using a 480/520 nm filter set.
(§2) Figure S3. […] (A) SNU475 cells were treated with 10 µM of each
(§3) compound for 24 hours before analysis by AR ELISA. (B ) (Left) Cellular invasion assay was performed on SNU475
(§4) Mean + SD One way ANOVA with
(§5) (Right) Cell viability was
(§6) (1 picture or pasted object on this page, not shown here)

SNU475 cells [4] = experiment: Cell viability under invasion assay conditions; format: cell-based, human; settings: 1 µM
Experimental: as §2, §3, §4, §5, §6

[5] = 40 mg/kg dose PO; listed as niclosamide; cited from earlier work
Primary Male Hepatocytes = experiment: CCK-8 cytotoxicity assay, primary male hepatocytes; format: cell-based; settings: 72 h treatment
Experimental: (§7) The cytotoxicity of compounds was determined by the CCK-8 assay (Cell Counting Kit-8, CK04, Dojindo Molecular Technologies, Kumamoto, Japan). Cell lines were plated at 10,000 cells/well in 96-well plates and incubated overnight to allow for adherence (5% CO2, 37 °C). […] Cells were placed back in the incubator for 72 h treatment. CCK-8 reagent was added, and plates were further incubated 1–4 h as directed by the supplier’s instructions. Optical density was measured using a Biotek Synergy H1 plate reader at 450 nm. Primary hepatocytes were plated at 30,000 cells or 50,000 cells/well and maintained according to the technical information bulletin provided by the supplier. Upon treatment, maintenance media were supplemented with 10% FBS and fresh test compound for all subsequent media changes, as directed.

HepG2 = experiment: CCK-8 cytotoxicity assay, HepG2; format: cell-based, human; settings: 72 h treatment
Experimental: as §7

SNU475 = experiment: CCK-8 cytotoxicity assay, SNU475; format: cell-based, human; settings: 72 h treatment
Experimental: as §7

SNU423 = experiment: CCK-8 cytotoxicity assay, SNU423; format: cell-based; settings: Homo sapiens, SNU-423, 72 h treatment
Experimental: as §7

SNU475 cells [6] = experiment: Hollow fiber assay (HFA) model of AR-SV HCC; format: in vivo; settings: BID PO one week; niclosamide 75, valine–niclosamide 106.1, valine–compound #7 87.3, compound #7 62.9 mg/kg; nude mice
Text: The hollow fiber procedures were based upon those developed by Hollingshead et al. with technical consultation kindly provided by Drs. Joanna Burdette and Dan Lantvit (University of Illinois Chicago, Chicago, IL, USA). […] In order to utilize a PO dosing approach with the HFA, we extended the traditional HFA timeline to establish angiogenesis, as noted in the literature. […] Hollow fibers (KrosFlo Implant Membranes, M138615, Repligen, Waltham, MA, USA) were filled with 3 × 10^6 SNU475 cells/mL per length and heat-sealed into 2 cm lengths on Day −1. On Day 0, three fibers were implanted into 20-week-old male outbred homozygous athymic nude mice (Foxn1^nu/Foxn1^nu, The Jackson Laboratory, Bar Harbor, ME, USA) subcutaneously parallel to the spine. Following a 14-day waiting period to allow for angiogenesis around the fibers, treatment was initiated. […] On Day 21, mice were euthanized and hollow fibers were explanted. The MTT assay was performed according to the KrosFlo Implant Membrane protocol utilizing Thiazolyl Blue Tetrazolium Bromide (M2128, MilliporeSigma, Burlington, MA, USA).

THLE-2 = experiment: CCK-8 cytotoxicity assay, THLE-2; format: cell-based; settings: Homo sapiens, 72 h treatment
Experimental: as §7

[7] = Single-dose IV and PO pharmacokinetics in mice; format: in vivo, male C57BL/6 mice
Experimental: The in-life study and quantitative analysis of plasma samples using LC/MS were performed at Charles River Laboratories, Inc. (Wilmington, MA, USA).

AR-SV = biological target: T1, AR-SV (Homo sapiens, UniProt P10275); experiment: AR protein ELISA in SNU475 cells; format: cell-based; settings: 10 µM, 24 hours, AR ELISA (Figure S3A)
T1 sequence (P10275 1-628): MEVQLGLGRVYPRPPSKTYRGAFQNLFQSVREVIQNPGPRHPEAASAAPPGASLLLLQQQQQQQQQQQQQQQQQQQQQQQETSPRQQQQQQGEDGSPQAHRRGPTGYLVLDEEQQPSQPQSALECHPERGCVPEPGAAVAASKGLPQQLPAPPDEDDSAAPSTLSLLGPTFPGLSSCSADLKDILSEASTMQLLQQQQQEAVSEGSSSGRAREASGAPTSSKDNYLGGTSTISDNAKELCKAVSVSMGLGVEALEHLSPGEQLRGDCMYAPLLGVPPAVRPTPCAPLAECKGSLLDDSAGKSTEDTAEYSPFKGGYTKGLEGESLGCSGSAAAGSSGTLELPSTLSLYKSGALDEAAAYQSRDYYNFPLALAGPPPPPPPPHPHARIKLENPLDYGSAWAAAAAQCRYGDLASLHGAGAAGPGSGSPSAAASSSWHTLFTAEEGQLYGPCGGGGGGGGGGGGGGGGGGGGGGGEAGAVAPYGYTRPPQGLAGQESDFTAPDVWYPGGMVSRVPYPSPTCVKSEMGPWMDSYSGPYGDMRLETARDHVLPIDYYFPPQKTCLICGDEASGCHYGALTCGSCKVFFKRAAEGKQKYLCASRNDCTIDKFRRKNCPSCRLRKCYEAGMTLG
Experimental: as §2, §3, §4, §5, §6

[8] = male, C57BL/6, mouse, in vivo, iv, 2 mg/kg
[9] = male, C57BL/6, mouse, in vivo, po, 40 mg/kg
[10] = IV, 2 mg/kg (valine conjugates 2 mg/kg EQV)
[11] = IV, 2 mg/kg (valine conjugates 2 mg/kg EQV), non-compartmental analysis
[12] = PO, 40 mg/kg (valine conjugates 40 mg/kg EQV)
[13] = male, C57BL/6, mouse, plasma, iv, 2 mg/kg, IV, 2 mg/kg (valine conjugates 2 mg/kg EQV), analyte = dosed compound, non-compartmental analysis, read-out: AUCall, Geo Mean
[14] = male, C57BL/6, mouse, plasma, iv, 2 mg/kg, IV, 2 mg/kg (valine conjugates 2 mg/kg EQV), read-out: Cmax, Geo Mean
[15] = male, C57BL/6, mouse, plasma, po, 40 mg/kg, PO, 40 mg/kg (valine conjugates 40 mg/kg EQV), analyte = dosed compound, non-compartmental analysis, read-out: AUCall, Geo Mean
[16] = male, C57BL/6, mouse, plasma, po, 40 mg/kg, PO, 40 mg/kg (valine conjugates 40 mg/kg EQV), read-out: Cmax, Geo Mean
[17] = male, C57BL/6, mouse, plasma, IV, 2 mg/kg (valine conjugates 2 mg/kg EQV), read-out: Tmax, Geo Mean
[18] = male, C57BL/6, mouse, plasma, PO, 40 mg/kg (valine conjugates 40 mg/kg EQV), read-out: Tmax, Geo Mean
[19] = male, C57BL/6, mouse, plasma, single IV dose, 2 mg/kg or molar equivalent, read-out: Systemic clearance following an IV dose (converted)

Row | SMILES | IC50 (Primary Male Hepatocytes; Hepatocyte, 72 h) | IC50 (HepG2; Homo sapiens, HepG2, 72 h) | IC50 (SNU475) | IC50 (SNU475; Homo sapiens, SNU-475, 72 h) | IC50 (SNU423) | Cell viability within hollow fibers (MTT assay) (SNU475 cells [6]) | IC50 (THLE-2) | Decrease of AR protein levels compared to enzalutamide and sorafenib (AR-SV) | HL_Lambda_z, Geo Mean [7, 10] | IV: Clobs, Geo Mean [7, 11] | HL_Lambda_z, Geo Mean [7, 12] | PO: Cl_Fobs, Geo Mean [7, 12] | AUC [7, 13] | Cmax [7, 14] | AUC [7, 15] | Cmax [7, 16] | Tmax [7, 17] | Tmax [7, 18] | clearance [7, 19] | also measured
1 | CC(C)[C@H](N)C(=O)OCCOCn1cnc2c(=O)[nH]c(N)nc21 [valacyclovir] |  |  |  |  |  |  |  |  |  |  |  |  |  |  |  |  |  |  |  | Formation of the cleaved parent ([1]; 360 min): readily detectable acyclovir; Percentage of pro-drug remaining intact ([1]; 6 h (360 min)): 66.4%; Formation of the cleaved parent ([2]; 360 min): readily detectable acyclovir; Percentage of pro-drug remaining intact ([2]; 6 h (360 min)): 37.7%
2 | O=C(Nc1ccc([N+](=O)[O-])cc1Cl)c1cc(Cl)ccc1O [Niclosamide, niclosamide, reference compound] | 7.2 µM | 600 nM | 1330 nM | 1300 nM | 250 nM | no differences in cell viability | 370 nM |  |  |  |  |  |  |  |  |  |  |  |  | SNU475 invasion (SNU475 cells [3]): decreased invasion; Cell viability at 48 h (SNU475 cells [4]): not impacted; Plasma niclosamide concentration 4 h after oral administration [5]: roughly 0.10 µM; IC50 (Primary Male Hepatocytes): 7.16 µM; Expected plasma levels for up to 8 h post-dose ([7]; C57BL/6, mouse, in vivo): approximately 0.2 µM; PO: Cl_Fobs, Geo Mean ([7]; male, C57BL/6, mouse, in vivo): 0.78 L/h; Tmax [7, 8]: 4.8 min; clearance [7, 8]: 1.33 mL/min; Cmax ([7]; male, C57BL/6, mouse, in vivo, iv, 2 mg/kg, Cmax, Geo Mean): 6.03 µM; AUCall of parent following an oral dose of its valine conjugate [7, 9]: 0.8 µM·h; Tmax [7, 9]: 25.2 min; AUC ([7]; male, C57BL/6, mouse, in vivo, po, 40 mg/kg, AUCall following an oral dose of the unconjugated compound): 3.25 µM·h; Cmax ([7]; male, C57BL/6, mouse, in vivo, po, 40 mg/kg, Cmax following an oral dose of the unconjugated compound): 1.65 µM; Cmax ([7]; male, C57BL/6, mouse, in vivo, po, 40 mg/kg, Cmax, Geo Mean): 1.65 µM
3 | O=C(Nc1ccc(C(F)(F)F)cc1Cl)c1cc(Cl)ccc1O [compound #7] | > 30 µM | 450 nM | 6600 nM | 4000 nM | 280 nM | no differences in cell viability | 310 nM | more effectively decrease AR protein levels | 4.85 h | 0.04 L/h | 3.58 h | 0.21 L/h | 3.7 µM·h | 6.98 µM | 13 µM·h | 5.79 µM | 4.8 min | 15 min | 0.667 mL/min | Expected plasma levels for up to 8 h post-dose ([7]; linearly scaled from PK data, BID 75 mg/kg niclosamide, 105.7 mg/kg valine–niclosamide, 87.3 mg/kg valine–compound #7, 62.9 mg/kg compound #7): 0.86 µM; AUC ([7]; male, C57BL/6, mouse, plasma, po, 40 mg/kg, PO 40 mg/kg of the parent compound, read-out: AUCall following an oral dose of the unconjugated compound): 13 µM·h; Cmax ([7]; male, C57BL/6, mouse, plasma, po, 40 mg/kg, PO 40 mg/kg of the parent compound, read-out: Cmax following an oral dose of the unconjugated compound): 5.78 µM
4 | O=C(Nc1ccc(C(F)(F)F)cc1)c1cc(Cl)ccc1O [compound #11] | 9.5 µM | 1900 nM | 7200 nM |  | 580 nM |  | 560 nM | more effectively decrease AR protein levels | 0.96 h | 0.03 L/h | 2.68 h | 0.35 L/h | 5.06 µM·h | 11.3 µM | 7.98 µM·h | 6.08 µM | 4.8 min | 25.2 min | 0.5 mL/min | IC50 (Primary Male Hepatocytes; listed as Compound #11): 9.47 µM; IC50 (HepG2; listed as Compound #11): 1860 nM; IC50 (SNU475; listed as Compound #11): 890 nM; AUC ([7]; male, C57BL/6, mouse, plasma, po, 40 mg/kg, single PO dose, 40 mg/kg or molar equivalent, analyte = dosed compound, read-out: AUCall following an oral dose): 7.98 µM·h
